{
  "source": "patent US20210369650A1",
  "about": "“TREATMENT OF INFLAMMATORY CONDITIONS” (UNION therapeutics A/S, priority 2018, published 2021)",
  "key": {"lesional AD skin": {"tested_on": "lesional AD skin", "conditions": "Brunner et al; cited from earlier work"}, "[1]": {"tested_on": "lesional skin of patients with moderate atopic dermatitis", "test": "Immunohistochemistry (IHC) of cell markers in lesional skin biopsies, Phase II atopic dermatitis study", "assay_type": "in vivo, human", "conditions": "lesional skin biopsy, Day 22, 2% niclosamide", "description": "(§1) 31 patients with moderate atopic dermatitis (Investigator Global Assessment [IGA] of 3) were included in this double-blind, randomized, intraindividual vehicle-controlled, Phase 2 study to evaluate the efficacy and safety of topically applied niclosamide. Patients had at least 2 areas of at least 3×3-cm of atopic dermatitis with a Total Sign Score (TSS) of […] discontinued the study before Day 22.\n(§2) Patients received topical applications of the niclosamide 2% composition and vehicle once daily for 3 weeks, followed by a 1-week follow up period. Topical niclosamide 2% and vehicle was applied on two separate target lesions of atopic dermatitis (lesions of at least 3×3-cm that are at least 2 cm apart, excluding the face, scalp, genitals, hands, and feet). The application areas (5×5-cm) were randomized (1:1) to once daily application of niclosamide 2% or vehicle at 5 mg/cm^2/day without occlusion 6 days per week. Patients came to the study site for all study product application for a total of 3 weeks.\n(§3) Three skin biopsies were collected in all patients (one from lesional skin at baseline, pre-dosing at Day 1, and two from lesional skin at Day 22 (one where topical niclosamide 2% had been applied and one where the vehicle had been applied). The lesional skin biopsies were analysed for skin thickness and inflammation biomarkers.\n(§4) The skin biopsy samples were analysed by immunohistochemistry (IHC), and by gene expression studies by RT-PCR using TaqMan Low Density Array (TLDA), and by microarray using Affymetrix U133A Plus 2. The immunohistochemistry (IHC) was used to analyse cell biomarkers. The methodologies as disclosed by Guttman-Yassky et al, “Major differences in inflammatory dendritic cells and their products distinguish atopic dermatitis from psoriasis”, The Journal of Allergy and Clinical Immunology, vol. 119, issue 5, pages 1210-1217, 2007, were followed except for that U133A Plus 2-set Gene Chip probe arrays was used instead of U95A-set Gene Chip probe arrays."}, "[2]": {"tested_on": "lesional skin of patients with moderate atopic dermatitis", "test": "Skin thickness in lesional skin biopsies at Day 22", "assay_type": "in vivo, human", "conditions": "lesional skin biopsy, Day 22, 2% niclosamide", "description": "as §2, with “weeks. Three skin biopsies were collected in all patients (one from lesional skin at baseline, pre-dosing at Day 1, and two from lesional skin at Day 22 (one where topical niclosamide 2% had been applied and one where the vehicle had been applied). The lesional skin biopsies were analysed for skin thickness and inflammation biomarkers.” for “weeks.”"}, "[3]": {"tested_on": "lesional skin of patients with moderate atopic dermatitis", "test": "Gene expression by microarray (Affymetrix U133A Plus 2) in lesional skin biopsies, Phase II atopic dermatitis study", "assay_type": "in vivo, human", "conditions": "microarray fold change", "description": "as §1, §2, §3\n(§5) Skin barrier and inflammation biomarker levels were determined from lesional skin biopsies from application areas.\nas §4\nExperimental design: The hybridization strategy was in concordance with experimental design principles, by for example keeping all samples from the same patient in the same date, and always include samples from every treatment arm/group.\nQuality Control and Pre-processing: Quality control of microarray chips were carried out using standard QC metrics and R package microarray Quality Control. Expression measures were obtained using GCRMA algorithm (Wu & Irizarry, 2004). Several visual and modelling techniques were used to elucidate if batch effect existed. Principal Component analysis plots were used to detect if any evident batch effect existed. If such batch effects were found, they were adjusted using Combat, an empirical Bayes method for adjusting data for batch effects that is robust to outliers in small sample sizes (Johnson, Li, & Rabinovic, 2007). The implementation of Combat by package sva was used.\nProbe-sets with at least 5% samples with expression larger than 3 (in log 2-scale) were kept for further analysis. Expression values were modelled using mixed-effect models with fixed factors Visit and Treatment Area and a random effect for each patient. Fold changes for the comparisons of interest were estimated and hypothesis testing was conducted on such comparisons using contrasts under the general framework for linear models in limma package. The inter-replicate correlation was computed by Duplicate Correlation function and the linear model was estimated by ImFit. P-values from the moderated (paired) t-test were adjusted for multiple hypotheses using the Benjamini-Hochberg procedure, which controls for FDR."}, "[4]": {"tested_on": "lamina propria T cells (expressing CD3)", "conditions": "WO 2017/040864; cited from earlier work"}, "[5]": {"tested_on": "lesional skin of patients with moderate atopic dermatitis", "test": "Gene expression by qRT-PCR (TLDA) in lesional skin biopsies, Phase II atopic dermatitis study", "assay_type": "in vivo, human", "conditions": "qRT-PCR fold change, lesional skin biopsy, Day 22, niclosamide 2% once daily", "description": "as §1, §2, §3, §5, §4\nExpression values (threshold cycle [Ct]) were normalized to Rplp0 by negatively transforming the Ct values to −dCt (IL17A was normalized to hARP, as analysed by qPCR). The undetected −dCt values were estimated for each gene as the 20% of the minimum across all samples. qRT-PCR expression data were modelled using a mixed effect model with Visit and Treatment Area as a fixed effect and a random intercept for each patient. This formulation intrinsically models the within patient correlation structure as in the case of a paired t-test. This approach introduces less bias than restricting the analysis for those patients who completed the study. Contrasts were used to estimate the fold changes with treatment within each treatment group and conduct hypothesis testing."}, "dendritic cell": {"tested_on": "dendritic cell", "conditions": "in-vitro, Wu et al.; cited from earlier work"}, "[6]": {"conditions": "lesional skin biopsy, Day 22, niclosamide 2% once daily"}, "[7]": {"conditions": "niclosamide relative to vehicle, Day 22, 2% niclosamide, p<0.05"}},
  "data": [
    {"compound": "dupilumab: inhibits interleukin-4 and interleukin-13 signalling by binding to interleukin-4 receptor a; FDA approved for atopic dermatitis", "values": [
      {"measurement": "expression of Th2-associated molecules, such as CCL17, CCL18, and CCL26", "setting": "lesional AD skin", "result": "reduction"}
    ]},
    {"compound": "O=C(Nc1ccc([N+](=O)[O-])cc1Cl)c1cc(Cl)ccc1O", "note": "[Niclosamide, niclosamide]", "values": [
      {"measurement": "Langerhans cells: langerin/CD207, compared to baseline", "setting": "[1]", "result": "Significant reductions"},
      {"measurement": "dendritic cells: CD11c, compared to baseline", "setting": "[1]", "result": "Significant reductions"},
      {"measurement": "dendritic cells: FceR1 in epidermis, compared to baseline", "setting": "[1]", "result": "Significant reductions"},
      {"measurement": "total amount of T cells (CD3) in dermis and epidermis, compared to baseline", "setting": "[1]", "result": "No significant change"},
      {"measurement": "skin thickness compared to baseline and compared to vehicle", "setting": "[2]", "result": "No differences"},
      {"measurement": "ACOX2 Niclosamide vs Predose", "setting": "[3]; [6]", "result": 1.40},
      {"measurement": "ACOX2 Vehicle vs. Niclosamide", "setting": "[3]; [6]", "result": "−1.40"},
      {"measurement": "CCL13 Niclosamide vs Predose", "setting": "[3]; [6]", "result": "−1.40"},
      {"measurement": "CCL18 Niclosamide vs Predose", "setting": "[3]; [6]", "result": "−1.70"},
      {"measurement": "CCL20 Vehicle vs. Niclosamide", "setting": "[3]; [6]", "result": 2.00},
      {"measurement": "CCR1 Niclosamide vs Predose", "setting": "[3]; [6]", "result": "−1.90"},
      {"measurement": "CCR5 Niclosamide vs Predose", "setting": "[3]; [6]", "result": "−1.40"},
      {"measurement": "CD86 Niclosamide vs Predose", "setting": "[3]; [6]", "result": "−1.60"},
      {"measurement": "CXCL1 Vehicle vs. Niclosamide", "setting": "[3]; [6]", "result": 2.10},
      {"measurement": "FA2H Niclosamide vs Predose", "setting": "[3]; [6]", "result": 1.50},
      {"measurement": "IFNGR2 Vehicle vs. Niclosamide", "setting": "[3]; [6]", "result": 1.10},
      {"measurement": "IL4R Niclosamide vs Predose", "setting": "[3]; [6]", "result": "−1.80"},
      {"measurement": "KRT79 Vehicle vs. Niclosamide", "setting": "[3]; [6]", "result": "−2.00"},
      {"measurement": "S100A12 Vehicle vs. Niclosamide", "setting": "[3]; [6]", "result": 2.30},
      {"measurement": "SPTLC3 Vehicle vs. Niclosamide", "setting": "[3]; [6]", "result": "−1.30"},
      {"measurement": "CXCL1 downregulated compared to vehicle", "setting": "[3]; [7]", "result": "−2.10"},
      {"measurement": "S100A12 downregulated compared to vehicle", "setting": "[3]; [7]", "result": "−2.30"},
      {"measurement": "effect on lamina propria T cells (expressing CD3) isolated from IBD patients", "setting": "[4]", "result": "kills"},
      {"measurement": "CXCL1 Niclosamide vs. Predose", "setting": "[5]", "result": "−2.80"},
      {"measurement": "CXCL10 Niclosamide vs. Vehicle", "setting": "[5]", "result": "−1.10"},
      {"measurement": "FLG Niclosamide vs. Predose", "setting": "[5]", "result": 1.50},
      {"measurement": "FLG Niclosamide vs. Vehicle", "setting": "[5]", "result": 1.30},
      {"measurement": "IL2 Niclosamide vs. Predose", "setting": "[5]", "result": "−1.20"},
      {"measurement": "IL17A Niclosamide vs. Vehicle", "setting": "[5]", "result": "−1.40"},
      {"measurement": "KRT16 Niclosamide vs. Vehicle", "setting": "[5]", "result": "−1.60"},
      {"measurement": "MMP12 Niclosamide vs. Vehicle", "setting": "[5]", "result": "−1.90"},
      {"measurement": "S100A7 Niclosamide vs. Vehicle", "setting": "[5]", "result": "−2.20"},
      {"measurement": "FLG Niclosamide vs. Predose", "setting": "[5]; listed as niclosamide", "result": "increased significantly"},
      {"measurement": "LOR Niclosamide vs. Predose", "setting": "[5]; listed as niclosamide", "result": "increased significantly"},
      {"measurement": "lipopolysaccharide (LPS)-induced dendritic cell maturation and cytokine costimulatory molecule and MHC molecule expression", "setting": "dendritic cell", "result": "inhibitory action"}
    ]}
  ]
}
